The values below come from patent EP1731520A1, “Pyrrolo[2,3-d]pyrimidine derivatives which are antagonists of adenosine A1, A2A, and A3” (OSI Pharmaceuticals, Inc., priority 1999, dated 2001).

Structures are written as SMILES.

human A1 receptor subtype, sequence (P30542 whole entry): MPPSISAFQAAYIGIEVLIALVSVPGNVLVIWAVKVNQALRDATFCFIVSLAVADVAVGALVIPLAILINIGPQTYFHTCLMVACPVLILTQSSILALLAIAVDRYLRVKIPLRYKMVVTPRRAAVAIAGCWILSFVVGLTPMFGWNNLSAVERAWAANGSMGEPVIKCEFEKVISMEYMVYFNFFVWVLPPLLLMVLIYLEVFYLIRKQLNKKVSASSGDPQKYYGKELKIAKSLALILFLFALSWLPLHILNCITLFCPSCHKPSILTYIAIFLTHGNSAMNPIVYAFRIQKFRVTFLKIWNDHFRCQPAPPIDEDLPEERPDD

One assay addresses human A1 receptor subtype (Homo sapiens, UniProt P30542).
Experiment: not given
The note with it: Table 13, in %; 10 µM.
Regarding `Cc1[nH]c2nc(-c3ccccc3)nc(NCCNC(=O)C3(N)CC3)c2c1C` [Compound 1313], the “% activity @ 10 µM, A1” value was 30%.

Still in this assay, the particulars now being: saturation and competition radio ligand binding.
On to `NC(=O)C1CCCN1c1nc(-c2ccccc2)nc2[nH]c(COCCO)cc12` (stereo not drawn) [Compound 1513, 1-[6-(2-Hydroxy-ethoxymethyl) -2-phenyl-7H-pyrrolo[2,3-d]pyrimidin-4-yl]-pyrrolidine-2-carb oxylic acid amide], for which the “A1 receptor binding affinity compared with reference compounds 1318 or 1319” value is on record as “equaled or surpassed”.
On the same count and under the same terms, the result for `OC1CCC(Nc2nc(-c3ccccc3)nc3[nH]c(Cn4ccnc4)cc23)CC1` (stereo not drawn) [Compound 1514, 4-(6-Imidazol-1-ylmethyl-2-phenyl-7H-pyrrolo[2,3-d]pyrimidin-4-ylamino)-cyclohexanol] reads “equaled or surpassed”; that for `OCCOCc1cc2c(N[C@H]3CC[C@H](O)CC3)nc(-c3ccccc3)nc2[nH]1` [Compound 1516], “equaled or surpassed”; that for `COC(=O)c1cc2c(NC3CCC(O)CC3)nc(-c3ccccc3)nc2[nH]1` (stereo not drawn) [Compound 1517, 4-(4-Hydroxy-cyclohexylamino) -2-phenyl-7H-pyrrolo[2,3-d]pyrimidine-6-carboxylic acid methyl ester], “equaled or surpassed”.
Still for that read-out and setting: under `COC(=O)COCc1cc2c(N3CCCC3C(N)=O)nc(-c3ccccc3)nc2[nH]1` (stereo not drawn) [Compound 1518, [4-(2-Carbamoyl-pyrrolidin-1-yl) -2-phenyl-7H-pyrrolo[2,3-d]pyrimidin-6-ylmethoxy]-acetic acid methyl ester] stands “equaled or surpassed”; under `NC(=O)C1CCCN1c1nc(-c2ccccc2)nc2[nH]c(COCC(=O)O)cc12` (stereo not drawn) [Compound 1519, [4-(2-Carbamoyl-pyrrolidin-1-yl) -2-phenyl-7H-pyrrolo[2,3-d]pyrimidin-6-ylmethoxy]-acetic acid], “equaled or surpassed”; under `NC(=O)c1cc2c(NC3CCC(O)CC3)nc(-c3ccccc3)nc2[nH]1` (stereo not drawn) [Compound 1520, 4-(4-Hydroxy-cyclohexylamino)-2-phenyl-7H-pyrrolo[2,3-d]pyrimidine-6-carboxylic acid amide], “equaled or surpassed”.

Another assay concerns the target T1, human A3 receptor subtype (Homo sapiens, UniProt P0DMS8).
T1 sequence (P0DMS8 1-318): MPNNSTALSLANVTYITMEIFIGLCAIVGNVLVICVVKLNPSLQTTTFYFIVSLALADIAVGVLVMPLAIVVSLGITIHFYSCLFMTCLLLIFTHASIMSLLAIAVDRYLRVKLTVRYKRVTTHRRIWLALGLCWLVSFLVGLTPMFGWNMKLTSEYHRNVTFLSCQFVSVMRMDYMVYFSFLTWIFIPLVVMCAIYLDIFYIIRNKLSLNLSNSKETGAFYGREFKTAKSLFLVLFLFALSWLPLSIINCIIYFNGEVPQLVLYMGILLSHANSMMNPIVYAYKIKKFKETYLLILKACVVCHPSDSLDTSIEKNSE
As to the kind of experiment: Adenosine 3 receptor competition radioligand binding, [125I] AB-MECA, HEK293 membranes. The note with it: Table 17, Adenosine A3 Receptor Selective Compounds.
Consider `CC(=O)NC(CNc1nc(-c2ccccc2)nc2[nH]c(C)c(C)c12)C(C)C` (stereo not drawn) [Compound 1700], for which the “Ki-A3 (selectivity versus other three subtypes)” value is “* (at least 10 times more selective than other three subtypes.)”.
The same measure, in the same setting: under `CCN(CC)C(=O)NCCNc1nc(-c2ccccc2)nc2[nH]c(C)c(C)c12` [Compound 1701] stands “* (at least 10 times more selective than other three subtypes.)”; under `CC(=S)NCCNc1nc(-c2ccccc2)nc2[nH]c(C)c(C)c12` [Compound 1702], “* (at least 10 times more selective than other three subtypes.)”; under `OC1CCN(c2nc(-c3ccccc3)nc3[nH]c(-c4ccccc4)cc23)C1` (stereo not drawn) [Compound 1703], “* (at least 10 times more selective than other three subtypes.)”.
Same read-out and setting: the result for `CCNC(=O)NCCCNc1nc(-c2ccccc2)nc2[nH]c(C)c(C)c12` [Compound 1704] reads “* (at least 10 times more selective than other three subtypes.)”; that for `Cc1[nH]c2nc(-c3ccccc3)nc(NC3CCC(OC(=O)CN)C3)c2c1C` (stereo not drawn) [Compound 1705], “* (at least 10 times more selective than other three subtypes.)”; that for `OC1CCC(Nc2nc(-c3ccccc3)nc3[nH]ccc23)C1` (stereo not drawn) [Compound 1706], “* (at least 10 times more selective than other three subtypes.)”.
As to `O=C(NCCNc1nc(-c2ccccc2)nc2[nH]ccc12)c1ccc[nH]1` [Compound 1707], the “Ki-A3 (selectivity versus other three subtypes)” value is on record as “* (at least 10 times more selective than other three subtypes.)”.
The same measure, in the same setting: the result for `O=C1NCCN1CCNc1nc(-c2ccccc2)nc2[nH]c(-c3ccccc3)cc12` [Compound 1708] reads “* (at least 10 times more selective than other three subtypes.)”; that for `CC(C)C(Nc1nc(-c2ccccc2)nc2[nH]c(-c3ccccc3)cc12)C(N)=O` (stereo not drawn) [Compound 1709], “* (at least 10 times more selective than other three subtypes.)”; that for `NC(=O)C(Cc1ccccc1)Nc1nc(-c2ccccc2)nc2[nH]c(-c3ccccc3)cc12` (stereo not drawn) [Compound 1710], “* (at least 10 times more selective than other three subtypes.)”.
On the same count and under the same terms, under `OCC1CN(c2nc(-c3ccccc3)nc3[nH]ccc23)C1` [Compound 1711] stands “* (at least 10 times more selective than other three subtypes.)”; under `Clc1cccc(OCc2cc3c(NCCc4ccc[nH]4)nc(-c4ccccc4)nc3[nH]2)c1` [Compound 1712], “* (at least 10 times more selective than other three subtypes.)”.
Take `CC(=O)NCCNc1nc(-c2ccccc2)nc2[nH]c(CN3CCC[C@H]3CNc3ccccc3)cc12` [Compound 1713]: the “Ki-A3 (selectivity versus other three subtypes)” value is “* (at least 10 times more selective than other three subtypes.)”.
The same measure, in the same setting: under `OC[C@@H](Nc1nc(-c2ccccc2)nc2[nH]c(COc3cccc(Cl)c3)cc12)c1ccccc1` [Compound 1714] stands “* (at least 10 times more selective than other three subtypes.)”; under `CNC(=O)N1CCCCC1CNc1nc(-c2ccccc2)nc2[nH]c(COc3cccc(Cl)c3)cc12` (stereo not drawn) [Compound 1715], “* (at least 10 times more selective than other three subtypes.)”; under `COC(=O)CC1CCN(c2nc(-c3ccccc3)nc3[nH]c(COc4cccc(Cl)c4)cc23)C1` (stereo not drawn) [Compound 1716], “* (at least 10 times more selective than other three subtypes.)”.
On the same count and under the same terms, the result for `NC(=O)CC1CCN(c2nc(-c3ccccc3)nc3[nH]c(COc4cccc(Cl)c4)cc23)C1` (stereo not drawn) [Compound 1717] reads “* (at least 10 times more selective than other three subtypes.)”; that for `OCC1CCCN(c2nc(-c3ccccc3)nc3[nH]c(COc4cccc(Cl)c4)cc23)C1` (stereo not drawn) [Compound 1718], “* (at least 10 times more selective than other three subtypes.)”; that for `CNC(=O)NCCCNc1nc(-c2ccc(Cl)cc2)nc2[nH]ccc12` [Compound 1719], “* (at least 10 times more selective than other three subtypes.)”.

Still in this assay, the particulars now being: competition radio ligand binding.
Take `c1ccc(-c2nc(NCCc3cnc[nH]3)c3cc[nH]c3n2)cc1` [Compound 1720, [2-(3H-Imidazol-4-yl)-ethyl]-(2-phenyl-7H-pyrrolo[2,3-d]pyrimidin-4-yl)-amine]: the “A3 receptor binding affinity relative to reference compound 1308” value was “greater than 10 times”.

The target in another assay is human A2a receptor subtype (Homo sapiens, UniProt P29274). The assay is described as follows: Adenosine 2a receptor subtype competition radioligand binding, [3H] CGS-21680, HEK293 membranes. The conditions noted are these: Table 13, in %; 10 µM.
human A2a receptor subtype, sequence (P29274 whole entry): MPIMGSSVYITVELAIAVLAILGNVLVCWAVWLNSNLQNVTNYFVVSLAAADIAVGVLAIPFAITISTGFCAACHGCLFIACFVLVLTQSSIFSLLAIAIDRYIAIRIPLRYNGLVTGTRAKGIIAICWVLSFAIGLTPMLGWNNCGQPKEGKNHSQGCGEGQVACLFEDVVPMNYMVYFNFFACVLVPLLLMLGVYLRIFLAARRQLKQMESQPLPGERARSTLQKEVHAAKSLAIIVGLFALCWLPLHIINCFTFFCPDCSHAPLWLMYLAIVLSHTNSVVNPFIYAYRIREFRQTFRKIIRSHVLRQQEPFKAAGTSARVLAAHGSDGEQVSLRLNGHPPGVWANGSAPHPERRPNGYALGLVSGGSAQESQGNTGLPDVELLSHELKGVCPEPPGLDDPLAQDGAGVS
As for `Cc1[nH]c2nc(-c3ccccc3)nc(NCCNC(=O)C3(N)CC3)c2c1C` [Compound 1313], the “% activity @ 10 µM, A2a” value came to 65%.

The assay is the same for the next values; noted with them: Table 16, Adenosine A2a Receptor Selective Compounds.
Consider `NC(=O)[C@H]1CCCN1c1nc(-c2cccc(F)c2)nc2[nH]ccc12` [Compound 1600], for which the “Ki-A2a (selectivity versus other three subtypes)” value was “* (at least 5 times more selective than other three subtypes.)”.
Turning to `OC[C@H]1CCCN1c1nc(-c2ccncc2)nc2[nH]ccc12` [Compound 1601], the “Ki-A2a (selectivity versus other three subtypes)” value was “* (at least 5 times more selective than other three subtypes.)”.
As for `NC(=O)[C@H]1CCCN1c1nc(-c2ccncc2)nc2[nH]ccc12` [Compound 1602], the “Ki-A2a (selectivity versus other three subtypes)” value is “* (at least 5 times more selective than other three subtypes.)”.
Consider `OC[C@H]1CCCN1c1nc(-c2ccccc2)nc2[nH]ccc12` [Compound 1603], for which the “Ki-A2a (selectivity versus other three subtypes)” value is “* (at least 5 times more selective than other three subtypes.)”.
On the same count and under the same terms, the result for `c1ccc(-c2cc3c(N4CCNCC4)nc(-c4ccncc4)nc3[nH]2)cc1` [Compound 1604] reads “* (at least 5 times more selective than other three subtypes.)”; that for `OC[C@H]1C[C@@H](O)CN1c1nc(-c2ccncc2)nc2[nH]ccc12` [Compound 1605], “* (at least 5 times more selective than other three subtypes.)”; that for `COC(=O)C(C)(C)NCc1cc2c(N3CCC[C@@H]3CO)nc(-c3ccccc3)nc2[nH]1` [Compound 1606], “* (at least 5 times more selective than other three subtypes.)”.
The same measure, in the same setting: the result for `OCC1CCCN(c2nc(-c3ccncc3)nc3[nH]ccc23)C1` (stereo not drawn) [Compound 1607] reads “* (at least 5 times more selective than other three subtypes.)”.
Still for that read-out and setting: under `CC(=O)NCCNc1nc(-c2ccncc2)nc2[nH]c(C)c(CN(C)Cc3ccccc3)c12` [Compound 1608] stands “* (at least 5 times more selective than other three subtypes.)”.

The same assay, now with this note: read-out: % activity @ 10 µM, A2a.
Regarding `CNC(=O)NCCCNc1nc(-c2ccccc2)nc2[nH]c(C)c(C)c12` [Compound 1310], the activity at 10 µM turned out to be 76%.

Staying with this assay, now noted: read-out: Binding Data Ki (nM) A2a; Table 14.
On to `CC(=O)NCCNc1nc(-c2ccccc2)nc2[nH]c(CNc3ccccc3)cc12` [Compound 1404], for which the inhibition constant Ki was 31 nM.

Staying with this assay, now noted: read-out: Binding Ki (nM) A2a; Table 13.
As for `CC(=O)NCCNc1nc(-c2ccccc2)nc2[nH]c(C)c(C)c12` [Compound 1300], the Ki was 18 to 48.6 nM.
